Test results as given in ChEMBL document CHEMBL3045533, “Synthesis and cytotoxicity of 1-phenylethanolamine carboxamide derivatives: effects on the cell cycle” (Med Chem Res, 2010).
Values after ≈ are worked out from the molar mass of the structure shown. Active and inactive are the calls of the source. No cut-off for these calls is given here.

Key:
L1210 [1] = experiment: Cytotoxicity against Mus musculus (mouse) L1210 cells after 72 hr by MTT assay; type: functional, cell-based; settings: L1210, 72 h
B16 = experiment: Cytotoxicity against Mus musculus (mouse) B16 cells after 72 hr by MTT assay; type: functional, cell-based; settings: B16, 72 h
U-937 = experiment: Cytotoxicity against Homo sapiens (human) U937 cells; type: functional, cell-based
L1210 [2] = experiment: Induction of apoptosis in Mus musculus (mouse) L1210 cells assessed as apoptotic cells at 500 uM after 3 hr by PI/annexin V-staining based flow cytometric analysis (reference value: 30%); type: functional
L1210 [3] = experiment: Induction of apoptosis in Mus musculus (mouse) L1210 cells assessed as cell death at 500 uM after 3 hr by PI/annexin V-staining based flow cytometric analysis (reference value: 5.3%); type: functional
L1210 [4] = experiment: Induction of apoptosis in Mus musculus (mouse) L1210 cells assessed as viable cells at 500 uM after 3 hr by PI/annexin V-staining based flow cytometric analysis (reference value: 32%); type: functional; settings: L1210, 3 h, read-out: Activity
L1210 [5] = experiment: Induction of apoptosis in Mus musculus (mouse) L1210 cells at 500 uM after 3 hr by PI-staining based flow cytometric analysis; type: functional, cell-based

Compound | IC50 (L1210 [1]) [µM] | IC50 (B16) [µM] | further results
COc1cccc(/C=C/C(=O)NCC(O)c2ccccc2)c1 (centres undefined) | 64 | > 100 | 
Nc1ccc(C(O)CNC(=O)/C=C/c2ccc([N+](=O)[O-])cc2)cc1 (centres undefined) | 64 | 53 | 
COc1ccc(/C=C/C(=O)NCC(O)c2ccccc2)cc1 (centres undefined) | > 100 | > 100 | 
COc1cc(/C=C/C(=O)NC[C@@H](O)c2ccc(O)cc2)ccc1O |  |  | IC50 (U-937): 44 µg/mL (≈ 134 µM)
COc1ccc2[nH]c(C(=O)NCC(O)c3ccc(N)cc3)cc2c1 (centres undefined) | 50 | 87 | Activity (L1210 [2]): 41%; Activity (L1210 [3]): 7%; viability at 500 µM (L1210 [4]): 48%; Activity (L1210 [5]): Active
COc1ccc2[nH]c(C(=O)NCC(O)c3ccccc3)cc2c1 (centres undefined) | 25 | 84 | 
COc1ccc(/C=C/C(=O)NCC(O)c2ccc(N)cc2)cc1 (centres undefined) | > 100 | 93 | 
O=C(/C=C/c1ccc([N+](=O)[O-])cc1)NCC(O)c1ccccc1 (centres undefined) | > 100 | > 100 | 
